Mutagenic call data for eight compounds are collected here from PubChem BioAssay AID1259407 (Chemical Carcinogenesis Research Information System (CCRIS), 2018).

The subject of the data set is CCRIS mutagenicity, Ames/micronucleus/aberration tests. Nature of the data set: CCRIS mutagenicity studies.
Setting [1] is: Test System: AMES SALMONELLA TYPHIMURIUM, Strain/Indicator: TA100, Metabolic Activation: NONE, Method: PREINCUBATION
The mark [2] stands for this setting: Test System: AMES SALMONELLA TYPHIMURIUM, Strain/Indicator: TA98, Metabolic Activation: NONE, Method: PREINCUBATION
Setting [3] is: Test System: AMES SALMONELLA TYPHIMURIUM, Strain/Indicator: TA1535, Metabolic Activation: NONE, Method: PREINCUBATION
Setting [4] is: Test System: AMES SALMONELLA TYPHIMURIUM, Strain/Indicator: TA1537, Metabolic Activation: NONE, Method: PREINCUBATION

Calls of active or inactive are those of the source. How the calls were made is not given here.

For the compound `Cc1cc(=O)oc2cc3c(cc12)C1(C)OOC1(C)O3` (stereo not drawn), the mutagenic call under setting [1] is “active; positive”.

For the compound `Nc1ncnc2c1ncn2Cc1ccccc1`, the mutagenic call (Test System: AMES SALMONELLA TYPHIMURIUM, Strain/Indicator: TA97, Metabolic Activation: NONE, Method: STANDARD PLATE) is “inactive; negative”; the mutagenic call (Test System: AMES SALMONELLA TYPHIMURIUM, Strain/Indicator: TA97, Metabolic Activation: RAT, LIVER, S-9, AROCLOR 1254, Method: STANDARD PLATE) is “inactive; negative”; the mutagenic call (Test System: AMES SALMONELLA TYPHIMURIUM, Strain/Indicator: TA98, Metabolic Activation: NONE, Method: STANDARD PLATE) is “inactive; negative”; the mutagenic call (Test System: AMES SALMONELLA TYPHIMURIUM, Strain/Indicator: TA98, Metabolic Activation: RAT, LIVER, S-9, AROCLOR 1254, Method: STANDARD PLATE) was “active; positive”; the mutagenic call (Test System: AMES SALMONELLA TYPHIMURIUM, Strain/Indicator: TA100, Metabolic Activation: NONE, Method: STANDARD PLATE) is “inactive; negative”; the mutagenic call (Test System: AMES SALMONELLA TYPHIMURIUM, Strain/Indicator: TA100, Metabolic Activation: RAT, LIVER, S-9, AROCLOR 1254, Method: STANDARD PLATE) was “inactive; negative”.

As to `CN(CC(O)CO)N=O` (stereo not drawn), the mutagenic call reads like this: (Test System: AMES SALMONELLA TYPHIMURIUM, Strain/Indicator: TA100, Metabolic Activation: HAMSTER, LIVER, S-9, 3-METHYLCHOLANTHRENE, Method: PREINCUBATION) “active; positive”; (Test System: AMES SALMONELLA TYPHIMURIUM, Strain/Indicator: TA100, Metabolic Activation: HAMSTER, LIVER, S-9, PHENOBARBITAL, Method: PREINCUBATION) “active; positive”; (Test System: AMES SALMONELLA TYPHIMURIUM, Strain/Indicator: TA100, Metabolic Activation: HAMSTER, LIVER, S-9, Method: PREINCUBATION) “active; positive”; (Test System: AMES SALMONELLA TYPHIMURIUM, Strain/Indicator: TA100, Metabolic Activation: MOUSE, LIVER, S-9, 3-METHYLCHOLANTHRENE, Method: PREINCUBATION) “active; positive”; (Test System: AMES SALMONELLA TYPHIMURIUM, Strain/Indicator: TA100, Metabolic Activation: MOUSE, LIVER, S-9, PHENOBARBITAL, Method: PREINCUBATION) “active; positive”; (Test System: AMES SALMONELLA TYPHIMURIUM, Strain/Indicator: TA100, Metabolic Activation: MOUSE, LIVER, S-9, Method: PREINCUBATION) “active; positive”. For the same compound, the mutagenic call is, setting by setting: under setting [1], “inactive; negative”; (Test System: AMES SALMONELLA TYPHIMURIUM, Strain/Indicator: TA100, Method: PREINCUBATION) “active; positive”.

For `CN(Cc1ccc(F)cc1)N=O`, the mutagenic call by setting is: (Test System: AMES SALMONELLA TYPHIMURIUM, Strain/Indicator: TA1535, Metabolic Activation: HAMSTER, LIVER, S-9, AROCLOR 1254, Method: STANDARD PLATE) “active; positive”; (Test System: AMES SALMONELLA TYPHIMURIUM, Strain/Indicator: TA1535, Metabolic Activation: NONE, Method: STANDARD PLATE) “inactive; negative”.

For `CCOC(=O)[C@H](CCc1ccccc1)N[C@@H](C)C(=O)N1[C@H](C(=O)O)C[C@H]2CCCC[C@@H]21`, the mutagenic call under setting [2] was “inactive; negative”; the mutagenic call (Test System: AMES SALMONELLA TYPHIMURIUM, Strain/Indicator: TA98, Metabolic Activation: RAT, LIVER, S-9, PHENOBARBITAL AND 5,6-BENZOFLAVONE, Method: PREINCUBATION) is “inactive; negative”; the mutagenic call under setting [1] was “inactive; negative”; the mutagenic call (Test System: AMES SALMONELLA TYPHIMURIUM, Strain/Indicator: TA100, Metabolic Activation: RAT, LIVER, S-9, PHENOBARBITAL AND 5,6-BENZOFLAVONE, Method: PREINCUBATION) is “inactive; negative”; the mutagenic call under setting [3] is “inactive; negative”; the mutagenic call (Test System: AMES SALMONELLA TYPHIMURIUM, Strain/Indicator: TA1535, Metabolic Activation: RAT, LIVER, S-9, PHENOBARBITAL AND 5,6-BENZOFLAVONE, Method: PREINCUBATION) is “inactive; negative”. Besides, the mutagenic call under setting [4] is “inactive; negative”; the mutagenic call (Test System: AMES SALMONELLA TYPHIMURIUM, Strain/Indicator: TA1537, Metabolic Activation: RAT, LIVER, S-9, PHENOBARBITAL AND 5,6-BENZOFLAVONE, Method: PREINCUBATION) was “inactive; negative”; the mutagenic call (Test System: E. COLI, Strain/Indicator: WP2 UVRA, Metabolic Activation: NONE, Method: PREINCUBATION) was “inactive; negative”; the mutagenic call (Test System: E. COLI, Strain/Indicator: WP2 UVRA, Metabolic Activation: RAT, LIVER, S-9, PHENOBARBITAL AND 5,6-BENZOFLAVONE, Method: PREINCUBATION) is “inactive; negative”.

With `CCCCN(C[C@H](CO)Cc1ccccc1)N=O`, the mutagenic call under setting [1] is “inactive; negative” and the mutagenic call (Test System: AMES SALMONELLA TYPHIMURIUM, Strain/Indicator: TA100, Metabolic Activation: RAT, LIVER, S-9, PCB, Method: PREINCUBATION) is “active; positive”.

`NC[N+](=O)[O-]`: the mutagenic call by setting is: (Test System: AMES SALMONELLA TYPHIMURIUM, Strain/Indicator: TA100, Metabolic Activation: RAT, LIVER, S-9, AROCLOR 1254, Method: PREINCUBATION) “inactive; negative”; (Test System: AMES SALMONELLA TYPHIMURIUM, Strain/Indicator: TA1535, Metabolic Activation: RAT, LIVER, S-9, AROCLOR 1254, Method: PREINCUBATION) “inactive; negative”.

As for `CC(=O)O[C@H]1[C@H]2O[C@H]2C2=CC(=O)[C@]3(C[C@]2(C)[C@H]1C)O[C@]3(C)C=O`, the mutagenic call by setting is: under setting [2], “active; positive”; (Test System: AMES SALMONELLA TYPHIMURIUM, Strain/Indicator: TA98, Metabolic Activation: RAT, LIVER, S-9, PHENOBARBITAL AND BETA-NAPHTHOFLAVONE, Method: PREINCUBATION) “inactive; negative”; under setting [1], “inactive; negative”; (Test System: AMES SALMONELLA TYPHIMURIUM, Strain/Indicator: TA100, Metabolic Activation: RAT, LIVER, MICROSOMES, PHENOBARBITAL, Method: STANDARD PLATE) “active; positive”; (Test System: AMES SALMONELLA TYPHIMURIUM, Strain/Indicator: TA100, Metabolic Activation: RAT, LIVER, S-9, PHENOBARBITAL AND BETA-NAPHTHOFLAVONE, Method: PREINCUBATION) “inactive; negative”; (Test System: AMES SALMONELLA TYPHIMURIUM, Strain/Indicator: TA100, Metabolic Activation: RAT, LIVER, S-9, PHENOBARBITAL, Method: PREINCUBATION) “inactive; negative”. The mutagenic call was “inactive; negative” under setting [3]; “inactive; negative” (Test System: AMES SALMONELLA TYPHIMURIUM, Strain/Indicator: TA1535, Metabolic Activation: RAT, LIVER, S-9, PHENOBARBITAL AND BETA-NAPHTHOFLAVONE, Method: PREINCUBATION); “inactive; negative” under setting [4]; “inactive; negative” (Test System: AMES SALMONELLA TYPHIMURIUM, Strain/Indicator: TA1537, Metabolic Activation: RAT, LIVER, S-9, PHENOBARBITAL AND BETA-NAPHTHOFLAVONE, Method: PREINCUBATION); “inactive; negative” (Test System: AMES SALMONELLA TYPHIMURIUM, Strain/Indicator: TA1538, Metabolic Activation: NONE, Method: PREINCUBATION); “inactive; negative” (Test System: AMES SALMONELLA TYPHIMURIUM, Strain/Indicator: TA1538, Metabolic Activation: RAT, LIVER, S-9, PHENOBARBITAL AND BETA-NAPHTHOFLAVONE, Method: PREINCUBATION).
